Test results from PubChem BioAssay AID1495 (Sanford-Burnham Center for Chemical Genomics, 2009).

molecular target: Chaperone protein DnaK (Escherichia coli) (UniProt C3TRK2); test: DnaK beta-domain binding affinity, SAR follow-up, orthogonal assay for DnaK modulator project, biophysical, isothermal titration calorimetry, full-length DnaK (AID 1495); settings: purified DnaK, measured here: ATP Kd, compound-saturated DnaK

| Kd | Compound |
| --- | --- |
| 2.5 µM | O=C(NCc1cccc2ccsc12)c1cccs1 |

same assay, conditions: purified DnaK, measured here: Kd to DnaK substrate-binding domain

| Compound | Kd |
| --- | --- |
| Cc1ccc(CNC(=O)c2ccc([N+](=O)[O-])o2)cc1 | 25 µM |
| CC(Cc1ccc(F)cc1)NC(=O)c1cccs1 (stereo not given) | 13.7 µM |
| O=C(Nc1ccc2[nH]ccc2c1)c1cccs1 | 4.9 µM |
| Cc1ccc(C(=O)NCc2ccc(F)cc2)o1 | 47.6 µM |
| Cc1ccc(C(=O)NCc2ccc(Cl)cc2)o1 | 19.3 µM |

Continued, values first:

| Kd | Compound |
| --- | --- |
| 1 µM | O=C(NCc1cccc2ccccc12)c1cccs1 |
| 14.3 µM | O=C(NCc1ccccc1Br)c1cccs1 |
| 1.5 µM | O=C(Nc1ncc2ccccc2n1)c1cccs1 |
| 64.1 µM | O=C(NCc1ccccc1F)c1cccs1 |

same assay, conditions: purified DnaK, measured here: substrate peptide Kd, compound-saturated DnaK

| Compound | Kd |
| --- | --- |
| CC(Cc1ccc(F)cc1)NC(=O)c1cccs1 (stereo not given) | 0.2 µM |
| O=C(Nc1ccc2[nH]ccc2c1)c1cccs1 | 2.2 µM |
| O=C(c1cccs1)N1CCN(CCO)CC1 | 7.9 µM |

The next lines start with the values.

| Kd | Compound |
| --- | --- |
| 1.2 µM | O=C(NCc1ccccc1O)c1cccs1 |
| 0.6 µM | O=C(NCc1ccc(Cl)c(Cl)c1)c1cccs1 |
